Measured values as given in ChEMBL document CHEMBL2074532, “P-glycoprotein increases the efflux of the androgen dihydrotestosterone and reduces androgen responsive gene activity in prostate tumor cells” (Prostate, 2004).

Molecular target: ATP-dependent translocase ABCB1 (Homo sapiens, UniProt P08183)
Assay: TP_TRANSPORTER: cell accumulation in P-gp transfected LNCaP cells
Type: functional, cell-based

Chain of ATP-dependent translocase ABCB1 (P08183 whole entry): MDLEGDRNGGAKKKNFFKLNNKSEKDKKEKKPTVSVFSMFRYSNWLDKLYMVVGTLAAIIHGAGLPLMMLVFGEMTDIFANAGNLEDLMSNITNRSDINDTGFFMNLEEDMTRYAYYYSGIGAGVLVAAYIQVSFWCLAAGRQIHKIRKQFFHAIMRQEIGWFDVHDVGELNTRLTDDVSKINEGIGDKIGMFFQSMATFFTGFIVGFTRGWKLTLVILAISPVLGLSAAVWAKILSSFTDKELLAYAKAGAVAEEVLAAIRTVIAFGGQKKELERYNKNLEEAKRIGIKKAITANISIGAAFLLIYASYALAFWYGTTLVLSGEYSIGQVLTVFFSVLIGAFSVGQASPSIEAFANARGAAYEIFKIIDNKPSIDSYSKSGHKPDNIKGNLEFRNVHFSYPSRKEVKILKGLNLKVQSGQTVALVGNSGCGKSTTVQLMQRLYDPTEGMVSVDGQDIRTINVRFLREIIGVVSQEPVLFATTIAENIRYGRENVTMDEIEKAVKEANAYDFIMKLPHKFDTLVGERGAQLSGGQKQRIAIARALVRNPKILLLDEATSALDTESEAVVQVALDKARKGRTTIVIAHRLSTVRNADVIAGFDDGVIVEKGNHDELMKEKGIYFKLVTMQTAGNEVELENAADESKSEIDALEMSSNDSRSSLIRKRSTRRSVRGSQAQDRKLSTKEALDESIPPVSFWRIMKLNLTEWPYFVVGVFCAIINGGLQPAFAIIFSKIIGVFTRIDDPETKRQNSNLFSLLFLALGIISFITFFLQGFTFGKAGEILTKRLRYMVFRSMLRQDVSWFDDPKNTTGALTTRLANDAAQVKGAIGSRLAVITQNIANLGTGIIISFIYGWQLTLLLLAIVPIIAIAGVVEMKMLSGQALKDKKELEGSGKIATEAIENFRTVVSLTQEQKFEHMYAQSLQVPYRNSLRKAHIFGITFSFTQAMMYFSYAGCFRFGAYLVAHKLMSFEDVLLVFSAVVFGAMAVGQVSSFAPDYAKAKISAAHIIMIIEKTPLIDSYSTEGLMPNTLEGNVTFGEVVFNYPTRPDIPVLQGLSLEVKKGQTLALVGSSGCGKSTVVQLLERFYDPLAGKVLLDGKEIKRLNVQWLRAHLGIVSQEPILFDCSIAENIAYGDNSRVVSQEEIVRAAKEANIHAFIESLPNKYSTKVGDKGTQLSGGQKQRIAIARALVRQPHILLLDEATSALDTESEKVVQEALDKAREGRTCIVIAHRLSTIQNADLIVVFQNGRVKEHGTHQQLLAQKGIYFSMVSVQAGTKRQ

SMILES: CC[C@]1(O)C[C@@H]2CN(CCc3c([nH]c4ccccc34)[C@@](C(=O)OC)(c3cc4c(cc3OC)N(C)[C@H]3[C@@](O)(C(=O)OC)[C@H](OC(C)=O)[C@]5(CC)C=CCN6CC[C@]43[C@@H]65)C2)C1 [VINBLASTINE]
- Activity: substrate [+]

SMILES: C[C@]12CCC(=O)C[C@@H]1CC[C@@H]1[C@@H]2CC[C@]2(C)[C@@H](O)CC[C@@H]12 [STANOLONE]
- Activity: substrate [+]
